Measurements from patent publication US9937198B2, “Multi-functional composition and preparation method and application thereof” (Suzhou Sciscape Bio-Pharmaceutical Technology Co., Ltd., priority 2013, dated 2018).
“And” between values parts separate entries of the source, which are not always exact repeats. Equal entries are not always repeated.

Assays:
ovariectomized rats = assay: Osteoporosis amelioration in ovariectomized rats; format: in vivo; conditions: femur, 13.3 mL/kg once a day for 30 days
Text: Female SD rats, 250 g to 280 g in body weight, were purchased from Shanghai Sippr-BK Lab Animal Co., Ltd.
(§1) The solutions of Compositions 1 to 7 prepared in this example were used.
After receiving ovariectomy, rats were fed normally for one week. By body weight, the rats were randomly divided into 11 groups, i.e., a blank control group, administration groups 1 to 7 and negative control groups 1 to 3. The rats in administration groups 1 to 7 were intragastrically administered with the solutions of Compositions 1 to 7 respectively at a dose of 13.3 mL/kg body weight while the rats in the blank control group were intragastrically given sterile water for medical use at a dose of 13.3 mL/kg body weight. The rats in negative control groups 1 to 3 were intragastrically given the solution of trehalose (0.15 g/mL), the solution of validamycin (0.3 mg/mL) and the solution of algal polysaccharides (0.15 g/mL) at a dose of 13.3 mL/kg body weight respectively. Administration was conducted once a day and lasted for 30 days. Normal rats were arranged in a normal group and fed normally all the time. Twenty to 30 min post last administration, all rats were killed by cervical vertebrae dislocation, and their femurs were taken out. Then, the bone density and mineral content in the femur were determined.

normal mice [1] = assay: Loaded swimming in normal mice; format: in vivo; conditions: 2 g weight on tail, 20 min after 13.3 mL/kg intragastric
Text: Female ICR mice, 8 weeks old and 20±2 g in body weight, were purchased from Beijing HFK Bioscience Co., Ltd.
The solutions of Composition 1 to 7 prepared in this example were used.
After the mice were fed normally for 3 days, they were randomly divided into 11 groups by body weight, i.e., a blank control group, administration groups 1 to 7 and negative control groups 1 to 3. The mice in administration groups 1 to 7 were intragastrically administered with the solution of Compositions 1 to 7 respectively a dose of 13.3 mL/kg body weight while the mice in the blank control group were intragastrically given sterile water for medical use at a dose of 13.3 mL/kg body weight. The mice in negative control groups 1 to 3 were intragastrically given the solution of trehalose (0.15 g/mL), the solution of validamycin (0.3 mg/mL) and the solution of algal polysaccharides (0.15 g/mL) respectively at a dose of 13.3 mL/kg body weight. Twenty minutes after the administration, a weight of 2 g was fixed to the tail of each mouse and the mice were put into a pool to swim with load. The bath temperature was 25±2° C., and the depth was more than 30 cm. The survival time in the loaded swimming was recorded (when all parts of a mouse were under water for 10 s, the mouse was considered to be unable to rise to the surface).

healthy volunteers = assay: Effect on blood glucose level in normal people; format: in vivo, human; conditions: for effect on blood glucose level in normal people / Blood glucose level after administration: 200 mL oral; for Blood glucose level after administration / Blood glucose level before administration: individual healthy volunteers; for Blood glucose level before administration: fasting baseline
Experimental: Six healthy volunteers were fasted overnight and then were measured for fasting blood glucose. Thereafter, they were orally administered with 200 mL of the solution of Composition 1, or 200 mL of the solution of trehalose (0.15 g/mL), or 200 mL of the solution of validamycin (0.3 mg/mL), or 200 mL of distilled water, as stated in Table 3.2. The blood glucose level in every volunteer was tested before administration and 30 min, 60 min and 120 min post administration.

Male ICR mice = assay: In vivo absorption: blood glucose in fasted normal mice after intragastric administration; conditions: for Blood glucose level after administration: 13.3 mL/kg intragastric; for Blood glucose level before administration: baseline, mice fasted 12 h; for blood glucose level compared to the blank control group: before or after administration, normal mice
Experimental: Male ICR mice, 8 weeks old, 20±2 g in body weight, were purchased from Beijing HFK Bioscience Co., Ltd.
The composition used in the present experiment example was the solution of Composition 1. In particular, 15 g of trehalose and 3 mg of validamycin were picked and then dissolved in 100 mL of sterile water for medical use to provide the solution of Composition 1 which was kept for future use.
After normally fed for 3 days, the mice fasted for 12 h with water sufficiently supplied. Then, they were randomly divided into 4 groups depending on the blood glucose, i.e., a blank control group, an administration group, and negative control group 1 and negative control group 2. The mice in the administration group were intragastrically given the solution of Composition 1 prepared in this experimental example at a dose of 13.3 mL/kg body weight while the mice in the blank control group were intragastrically given sterile water for medical use at a dose of 13.3 mL/kg body weight. In addition, the mice in negative control group 1 and 2 were respectively intragastrically given the solution of trehalose (0.15 g/mL) and the solution of validamycin (0.3 mg/mL) at the same dose of 13.3 mL/kg body weight. The blood glucose levels before administration and 10 min, 25 min, 40 min and 60 min post administration were measured respectively, and the results were shown in Table 2.

normal mice [2] = assay: Acetic acid writhing (pain) in normal mice; format: in vivo; conditions: for Time of initial writhing: 13.3 mL/kg intragastric, 0.6% acetic acid i.p. 20 min later; for Pain inhibition ratio: relative to number of writhings in blank control group; for Number of writhings: within 30 min after acetic acid injection
Text: Male ICR mice, 8 weeks old and 20±2 g in body weight, were purchased from Beijing HFK Bioscience Co., Ltd.
as §1
After mice were normally fed for 3 days, they were randomly divided into 11 groups depending on body weight, i.e., a blank control group, administration groups 1 to 7 and negative control groups 1 to 3, by body weight. The mice in administration groups 1 to 7 were intragastrically given the solutions of Compositions 1 to 7 respectively at a dose of 13.3 mL/kg body weight while the mice in the blank control group were intragastrically given sterile water for medical use at a dose of 13.3 mL/kg body weight. The mice in negative control groups 1 to 3 were intragastrically given the solution of trehalose (0.15 g/mL), the solution of validamycin (0.3 mg/mL) and the solution of algal polysaccharides (0.15 g/mL) at a dose of 13.3 mL/kg body weight respectively. Twenty minutes after the administration, the mice were intraperitoneally administered with 0.2 ml of solution of acetic acid (0.6%). Then, the number of writhing and time when initial writhing occurred in mice were observed within 30 min after injection of acetic acid solution and the pain inhibition ratio (pain inhibition ratio=(number of writhings in the blank control group—number of writhings in the administration group)/number of writhings in the blank control group) was calculated.

Structure (SMILES) | Bone density (ovariectomized rats) [g/cm^2] | Mineral content (ovariectomized rats) [g/cm] | Survival time (normal mice [1]) [min] | effect on blood glucose level in normal people (healthy volunteers) | Blood glucose level after administration (Male ICR mice; 10 min) [mmol/L] | Blood glucose level after administration (Male ICR mice; 25 min) [mmol/L] | Blood glucose level after administration (Male ICR mice; 40 min) [mmol/L] | Blood glucose level after administration (Male ICR mice; 60 min) [mmol/L] | Blood glucose level before administration (Male ICR mice) [mmol/L] | blood glucose level compared to the blank control group (Male ICR mice) | Time of initial writhing (normal mice [2]) [min] | Pain inhibition ratio (normal mice [2]) [%] | Number of writhings (normal mice [2]) | other results
OC[C@H]1O[C@H](O[C@H]2O[C@H](CO)[C@@H](O)[C@H](O)[C@H]2O)[C@H](O)[C@@H](O)[C@@H]1O [trehalose] | 0.1037 ± 0.0211 | 0.1245 ± 0.0374 | 13.45 ± 2.54 | significantly raised blood glucose level | 6.4 ± 0.40 | 9.5 ± 1.00 | 11.0 ± 0.30 | 9.5 ± 1.12 | 4.9 ± 0.53 | increased significantly | 3.4 ± 1.1 | 0.0 | 51.3 ± 1.6 | Blood glucose level after administration (healthy volunteers; 30 min): 9.3 mmol/L; Blood glucose level after administration (healthy volunteers; 60 min): 8.4 mmol/L; Blood glucose level after administration (healthy volunteers; 120 min): 7.1 mmol/L; Blood glucose level before administration (healthy volunteers): 7.0 mmol/L
OCC1=C[C@H](N[C@H]2C[C@H](CO)[C@@H](O[C@@H]3O[C@H](CO)[C@@H](O)[C@H](O)[C@H]3O)[C@H](O)[C@H]2O)[C@H](O)[C@@H](O)[C@@H]1O [validamycin] | 0.1063 ± 0.0222 | 0.1212 ± 0.0311 | 12.54 ± 1.08 | had not effect on the blood glucose level | 5.3 ± 0.45 | 5.7 ± 0.56 | 5.2 ± 0.23 | 5.3 ± 0.20 | 5.2 ± 0.44 | no significant difference | 3.6 ± 1.6 | 0.0 | 51.9 ± 2.1 | Blood glucose level after administration (healthy volunteers; 30 min, listed as Solution of validamycin): 6.3 mmol/L and 6.7 mmol/L; Blood glucose level after administration (healthy volunteers; 60 min, listed as Solution of validamycin): 6.2 mmol/L and 6.6 mmol/L; Blood glucose level after administration (healthy volunteers; 120 min, listed as Solution of validamycin): 5.9 mmol/L and 5.3 mmol/L; Blood glucose level before administration (healthy volunteers; listed as Solution of validamycin): 6.0 mmol/L and 5.3 mmol/L
